From ChEMBL document CHEMBL1129047, “(2S,3S,5R)-2-(3,5-difluorophenyl)-3,5-dimethyl-2-morpholinol: a novel antidepressant agent and selective inhibitor of norepinephrine uptake” (J Med Chem, 1996)

Experiments:
[1] = organism: Rattus norvegicus; test: In vitro inhibition of dopamine (DA) uptake in synaptosomal preparation of rat brain; format: functional, organism-based
[2] = test system: Mus musculus; test: Compound was tested for the inhibition of tetrabenazine-induced sedation in mice, after peroral administration; format: functional; conditions: po
[3] = organism: Rattus norvegicus; test: In vitro inhibition of serotonin uptake in synaptosomal preparation of rat brain; format: functional, organism-based
[4] = test system: Rattus norvegicus; test: Compound was tested for the inhibition of tetrabenazine-induced sedation in rat, after peroral administration; failed to produce a 50%antagonism; format: functional; conditions: po
[5] = organism: Rattus norvegicus; test: In vitro inhibition of norepinephrine (NE) uptake in synaptosomal preparation of rat brain; format: functional, organism-based
[6] = test system: Rattus norvegicus; test: Compound was tested for the inhibition of tetrabenazine-induced sedation in rat, after peroral administration; format: functional; conditions: po

Compound | IC50 [1] | ED50 [2] | IC50 [3] | ED50 [4] | IC50 [5] | ED50 [6]
CC(NC(C)(C)C)C(=O)c1cccc(Cl)c1 (stereo not given) [BUPROPION] | 900 nM | 32 mg/kg | > 10000 nM | > 100 mg/kg | 2400 nM | –
CN(C)CCCN1c2ccccc2CCc2ccccc21 [IMIPRAMINE] | > 10000 nM | 9 mg/kg | 500 nM | – | 40 nM | 13.4 mg/kg
C[C@@H]1CO[C@@](O)(c2cc(F)cc(F)c2)[C@H](C)N1 [MANIFAXINE] | 1000 nM | 6.2 mg/kg | > 10000 nM | – | 70 nM | 1.4 mg/kg
